Here are results for one molecule from patent US5998437A, “Benzimidazole derivatives” (Otsuka Pharmaceutical Co., Ltd., priority 1995, dated 1999).

What is called IC50 is the concentration needed to halve the response being measured. A lower IC50 goes with higher potency.

For one assay, the target named is T1, cGMP-PDE (Homo sapiens, UniProt O76074).
T1 construct: Separation and partial purification of PDE (phosphodiesterase) from human platelets; from tissue; host or cells: human platelets (supernatant, DEAE-cellulose FI fraction)
In words: Activity for inhibiting cGMP PDE (PDE partially purified from human platelets, FI fraction). In kind it is biochemical. The settings on record: 0.4 μM of [3H]-cGMP. As for the experimental part:
(1) Measurement of the Activity for Inhibiting cGMP PDE
Separation and partial purification of PDE (phosphodiesterase) from human platelets, and measurement of the activity for inhibiting cGMP PDE were conducted by the method of Hidaka, et al. [Biochimica et Biophysica Acta, Vol. 429, (1976), pp. 485-497]. The platelets obtained from human healthy adult were washed, and suspended in TRIS-buffer solution, then said suspension was treated by centrifugal separation, the supernatant was subjected to a DEAE-cellulose treatment and fractionated into FI to FIII fractions by a method of concentration gradient of sodium acetate. Thus obtained FI fraction was used as the sample of cGMP-PDE. The activity for inhibiting cGMP-PDE was measured by using 0.4 μM of [^3 H]-cGMP.

A further assay relates to TPA induced inflammation. The assay can be described thus: Activity for inhibiting TPA induced inflammation (ear pinna). It is filed as in vivo, ICR strain female mouse. The settings on record: 1% solution, 20 μl on ear pinna 30 minutes before TPA; 4 hours after TPA coating. As for the experimental part:
(6) Determination of the Activity for Inhibiting TPA Induced Inflammation
Test was conducted by the modified method of Carlson, et al. [Agents Actions, Vol. 26, (1989), page 319]. Thus, to the ear pinna of ICR strain female mouse, 20 μl of acetone solution of 12-O-tetradecanoylphorbol-13-acetate (TPA) in the concentration of 200 μg/ml was coated to induce inflammation. The thickness of ear pinna of 4 hours after the TPA coating was measured, and difference of the last value was defined as the ear pinna inflammation. Test compound was dissolved in acetone-methanol (4:1 by v/v) to make the concentration of 1%. 20 μl of test compound solution was coated on the ear pinna 30 minutes before the TPA coating. By using compound of Example 3 as test compound, the inflammation was inhibited at the rate of 66%.

In the next assay the test system is T cells. In words: Activity for inhibiting proliferation of the T cells (mouse spleen cells, Concanavaline A). In kind it is cell-based, Balb/c strain male mouse. To be noted: T-cell, 2 days, then [3H] thymidine overnight. As for the experimental part: (4) Measurement of the Activity for Inhibiting Proliferation of the T Cells
Test was conducted by the method as disclosed in "Current Protocol in Immunology" [Edited by Coligan, et al., (1991)] Chapter 3, page 12 (Published from Willy Interscience, Inc.). After sacrificed a Balb/c strain male mouse, the spleen was enucleated and a suspension of the spleen cells in RPMI-1640 culture medium was prepared. Said suspension was filtered through a nylon fiber mesh, and subjected to a centrifugal separation (1,200 rpm, for 5 minutes), there were added on pellet 5 ml of 0.15 M ammonium chloride, 10 mM potassium hydrogencarbonate, and 0.1 mM disodium salt of EDTA (pH 7.2) per one spleen so as to suspend the cells, and the suspension was incubated at 37° C. for 5 minutes. […] After counted the number of cells by using a hemacytometer, a suspension containing cell density of 10^6 /ml was prepared by diluting with RPMI-10 culture medium. […]
20 μCi/ml of [methyl-^3 H] thymidine was added in an amount of 10 μl/well, after further incubated overnight, by using a cell harvester the cells were recovered on the filter of the harvester. The filter was cut out from the cell harvester and put in a vial, then 5 ml of a scintillation cocktail (ACS-II) was added, and measured by using a liquid scintillation counter. […]

The subject of the next assay is rat mesangial cells. The assay can be described thus: Activity for inhibiting proliferation of rat mesangial cells (PDGF-BB, [3H]-thymidine uptake). In kind it is cell-based. The settings on record: Mesangial cell, 5 ng/ml PDGF-BB, 0.5% FCS. The text has this: (7) Determination of the Activity for Inhibiting Proliferation of Rat Mesangial Cells
In accordance with the method of F. Jaffer, et al. [Am. J. Pathol., Vol. 135, (1989), pages 261-269], the mesangial cells were collected. Under anesthetized condition, the kidney of a rat was aseptically enucleated and the medulla renis was cut out, then the cortex renis was pressed to a sieve (120 mesh) made of stainless steel. The fraction of cortex renis passed through the sieve was put on another sieve of 200 mesh and washed with PBS (phosphate-buffered saline), the fraction being remained on the sieve was confirmed as the glomerulus. This fraction was cultured in RPMI 1640 medium [containing 15% of fetal calf serum (FCS), and 5 μg/ml of insulin] for 4 weeks. This fraction was further subcultured twice, and the remaining cells were thought of as the mesangial cells for use of this experiment.
Determination of the activity for inhibiting proliferation of rat mesangial cells was conducted in accordance with the method of M. B. Ganz, et al. [Am. […]
Thus 2×10^4 /ml of mesangial cells were inoculated on a culture plate (48 wells, each well having the capacity of 0.5 ml), and cultured with RPMI medium (containing 15% FCS) for 3 days. […] The supernatant of the culture medium was taken up, and the amount of [^3 H]-thymidine up-taken into the cells was measured by use of scintillation counter.

Take `O=C(Nc1ccc2c(ccn2CCCn2ccnc2)c1)c1nc2ccc(Cl)cc2n1Cc1ccccc1` [Example 3, 1-benzyl-6-chloro-2-{1-[3-(imidazol-1-yl)propyl]indol-5-ylamino-carbonyl}benzimidazole]: the results for the IC50 at cGMP-PDE, with T cells and in the assay with rat mesangial cells were 0.01 µM, 2000 nM and 790 nM, respectively. The “Inhibition rate of TPA induced inflammation” value with TPA induced inflammation is 66%.
